Test results as given in article PMC8301926 (Biomolecules, 2021).
Where “and” joins values, the source holds several entries; their conditions need not be identical. Identical values can stand only once. Like-named read-outs stand apart in the source and are kept apart here.

Experiments:
[1] = molecular target: T1, recombinant human monoamine oxidase B (hMAO-B) (Homo sapiens, UniProt P27338); test: hMAO-B enzyme kinetics (Lineweaver-Burk, Dixon, secondary plots); format: biochemical; conditions: for Ki: from secondary plots; for Inhibition Type, hMAO-B: Lineweaver-Burk and Dixon plots
T1 sequence (P27338 1-520): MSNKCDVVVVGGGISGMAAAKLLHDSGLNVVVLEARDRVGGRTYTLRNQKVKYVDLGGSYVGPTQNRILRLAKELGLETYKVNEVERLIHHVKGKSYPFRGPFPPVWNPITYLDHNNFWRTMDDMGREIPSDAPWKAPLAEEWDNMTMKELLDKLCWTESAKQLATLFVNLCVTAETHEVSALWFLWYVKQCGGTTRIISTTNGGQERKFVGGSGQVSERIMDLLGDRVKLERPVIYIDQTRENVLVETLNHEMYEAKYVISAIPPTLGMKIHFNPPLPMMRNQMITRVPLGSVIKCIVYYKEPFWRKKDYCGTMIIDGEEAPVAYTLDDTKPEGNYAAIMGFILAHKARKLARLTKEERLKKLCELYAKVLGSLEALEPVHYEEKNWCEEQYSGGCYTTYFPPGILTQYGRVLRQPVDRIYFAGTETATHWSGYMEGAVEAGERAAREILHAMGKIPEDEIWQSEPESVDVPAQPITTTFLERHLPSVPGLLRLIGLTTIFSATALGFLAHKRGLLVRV

[2] = tested on: recombinant human MAO-A (hMAO-A); parameters: method as in earlier work; conditions: ref 27 (Dittman et al., 2004); read-out: IC50, recombinant human MAO-A (literature); cited from earlier work
[3] = molecular target: T1, recombinant human monoamine oxidase B (hMAO-B); test: hMAO-B inhibition, MAO-Glo chemiluminescent assay; format: biochemical; conditions: mean ± SD of triplicate experiments
[4] = molecular target: T2, recombinant human monoamine oxidase A (hMAO-A) (Homo sapiens, UniProt P21397); test: hMAO-A inhibition, MAO-Glo chemiluminescent assay; format: biochemical; conditions: for IC50: mean ± SD of triplicate experiments; for SI (selectivity index): ratio of the IC50 value for hMAO-A inhibition to that for hMAO-B inhibition
T2 sequence (P21397 1-527): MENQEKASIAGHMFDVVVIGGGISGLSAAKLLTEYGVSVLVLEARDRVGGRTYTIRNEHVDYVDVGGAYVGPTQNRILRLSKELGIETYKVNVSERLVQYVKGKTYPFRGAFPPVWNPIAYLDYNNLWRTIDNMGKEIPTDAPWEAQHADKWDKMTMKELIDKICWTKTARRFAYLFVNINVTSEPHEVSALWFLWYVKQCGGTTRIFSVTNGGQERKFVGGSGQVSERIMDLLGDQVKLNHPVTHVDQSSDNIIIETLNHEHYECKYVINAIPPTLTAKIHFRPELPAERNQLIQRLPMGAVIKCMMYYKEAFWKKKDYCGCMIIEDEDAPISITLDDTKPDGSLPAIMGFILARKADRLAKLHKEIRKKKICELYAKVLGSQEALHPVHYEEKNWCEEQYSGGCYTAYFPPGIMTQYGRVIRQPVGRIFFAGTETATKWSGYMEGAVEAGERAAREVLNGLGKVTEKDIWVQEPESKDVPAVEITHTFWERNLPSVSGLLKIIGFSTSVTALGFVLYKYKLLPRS

[5] = molecular target: T2, recombinant human monoamine oxidase A (hMAO-A); test: hMAO-A enzyme kinetics (Lineweaver-Burk, Dixon, secondary plots); format: biochemical; conditions: for Ki: from secondary plots; for Inhibition Type, hMAO-A: Lineweaver-Burk and Dixon plots
[6] = molecular target: T3, human M4 muscarinic acetylcholine receptor (hM4R) (Homo sapiens, UniProt P08173); test: M4 (h) functional GPCR assay, antagonist effect, cAMP HTRF; format: cell-based; conditions: CHO cells, cAMP; read-out: Reference IC50, M4 reference antagonist
T3 construct: host or cells: CHO cells
T3 sequence (P08173 1-479): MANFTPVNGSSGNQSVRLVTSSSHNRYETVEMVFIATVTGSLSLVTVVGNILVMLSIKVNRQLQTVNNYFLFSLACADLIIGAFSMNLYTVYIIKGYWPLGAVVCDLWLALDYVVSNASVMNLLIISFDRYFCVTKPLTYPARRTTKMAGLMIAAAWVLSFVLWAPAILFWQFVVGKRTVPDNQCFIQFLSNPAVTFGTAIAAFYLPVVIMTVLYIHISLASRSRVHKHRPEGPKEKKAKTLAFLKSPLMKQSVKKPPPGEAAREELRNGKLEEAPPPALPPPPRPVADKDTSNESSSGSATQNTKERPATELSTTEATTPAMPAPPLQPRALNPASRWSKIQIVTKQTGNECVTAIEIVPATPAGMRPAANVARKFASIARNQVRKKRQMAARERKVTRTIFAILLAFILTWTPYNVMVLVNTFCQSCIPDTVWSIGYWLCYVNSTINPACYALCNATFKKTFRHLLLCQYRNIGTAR
Method: The cellular and nuclear receptor functional assays were carried out at Eurofins Cerep (Le Bois I’ Eveque, France) following the in-house protocols (catalog items G029-1262, G029-1474, G030-1658, G030-1659, G031-1243, G031-1244, G032-1670, G032-1671, G033-4217, and G033-4212). The experimental methods for the assays were as described in the previous reports and the general methodology is summarized in the Supplementary Information Table S1. Recombinant human Chinese hamster ovary (CHO) cells and rat basophilic leukemic (RBL) cells were transfected with the GPCR genes of interest (hM1R, hM2R, hM3R, hM4R, and hM5R). The functional assay provided the readouts based on the measurements of calcium ion mobilization (for the Gαq/11-coupled receptors) and cAMP level (for the Gαi/o-coupled receptors).
Stable CHO cells expressing the transfected cDNA of human M2 receptors were suspended in a medium containing HBSS buffer complemented with 20-mM HEPES buffer (pH 7.4) and 500-µM IBMX, whereas the stable human M4 receptor cloned CHO cells were distributed in HBSS buffer with 20-mM HEPES/NaOH (pH 7.4), 70-mM NaCl, 5.33-mM KCl, 1.25-mM CaCl2, 0.5-mM MgCl2, 0.41-mM MgSO4, 0.441-mM KH2PO4, 0.3-mM Na2HPO4, 0.1% glucose, and 500-µM IBMX. […] The cAMP level was calculated as the ratio of the signal measured at 665 nm to that measured at 620 nm. […]
Assay Source Stimulus Incubation Measured Detection References […]

In the case of `C[C@H]1COC2=C1C(=O)C(=O)c1c2ccc2c1CCCC2(C)C` [Cryptotanshinone], the Ki ([1]; Kic, hMAO-B) is reported as 9.33 ± 0.1 µM, the “Inhibition Type, hMAO-B” value [1] is reported as “Competitive” and the “Inhibition Type, hMAO-B” value ([1]; listed as 3) is reported as “competitive enzyme inhibition”. The IC50 [2] was 84 µM, the IC50 [3] was 23.1 ± 2.1 µM and the IC50 ([4]; IC50, hMAO-A) was < 10 µM and 8.7 µM. For the same compound, the “SI (selectivity index)” value [4] was 0.38, the Ki ([5]; Kic, hMAO-A) was 4.99 ± 0.34 µM and the Ki ([5]; Kiu, hMAO-A) was 38.1 ± 1.79 µM. For the same compound, the “Inhibition Type, hMAO-A” value [5] was “Mixed” and the “Inhibition Type, hMAO-A” value ([5]; listed as 3) was “mixed-mode”.

In the case of `Cc1cccc2c3c(ccc12)C1=C(C(=O)C3=O)[C@@H](C)CO1` [Dtan I, dihydrotanshinone I, reference compound], the IC50 [2] is listed as 23 µM.

`CCOC(=O)c1c(C)[nH]c2ccc3c(c12)CN1CCc2cc(OC)ccc2C1O3` (stereo not shown) [PD 102807, reference compound] showed an IC50 [6] of 0.036 µM.

In the case of `Cc1coc2c1C(=O)C(=O)c1c-2ccc2c1CCCC2(C)C` [Tanshinone IIA], the “Inhibition Type, hMAO-B” value [1] is reported as “Non-competitive”, the “Inhibition Type, hMAO-B” value ([1]; listed as 2) is reported as “noncompetitive inhibition” and the Ki ([1]; read-out: Kic, hMAO-B) is reported as 12.9 ± 1.14 µM. The Ki ([1]; read-out: Kiu, hMAO-B) was 13.7 ± 0.58 µM, the IC50 [2] was greater than 400 µM and the IC50 [3] was < 25 µM and 17.5 µM. For the same compound, the IC50 ([4]; read-out: IC50, hMAO-A) was < 10 µM and 6.08 µM, the “SI (selectivity index)” value [4] was 0.35 and the “Inhibition Type, hMAO-A” value [5] was “Mixed”. The “Inhibition Type, hMAO-A” value ([5]; listed as 2) was “mixed-mode”, the Ki ([5]; read-out: Kic, hMAO-A) was 0.72 ± 0.13 µM and the Ki ([5]; read-out: Kiu, hMAO-A) was 2.74 ± 0.37 µM.
